From patent publication US8829007B2 (priority 2009, dated 2014) come the findings set out here.

Where a name gives a salt, the structure may show the parent alone. Read-outs that look alike come from different tables or passages of the source.

Assay [1] relates to influenza A virus (A/PR/8/34). Kind of assay: microbe, parasite or virus in culture. It counts as cell-based.
The test system of assay [2] is A/PR/8/34 influenza virus. The assay is described as follows: microbe, parasite or virus in culture. The assay is classed as cell-based.
Setting [3] is: Influenza A virus, PR/8, MDCK, CPE assay, A/PR/8/34 infected MDCK cells, class symbols, read-out: IC50 (mean all).
Where [4] appears, read: Influenza A virus, PR/8, MDCK, bDNA assay, A/PR/8/34 influenza virus replication in MDCK cells, class symbols, read-out: EC50 (mean all).
Setting [5] is: Influenza A virus, PR/8, MDCK, mean all, A/PR/8/34 infected MDCK cells, CPE assay, read-out: IC50.
Setting [6] is: Influenza A virus, PR/8, MDCK, mean all, A/PR/8/34 influenza virus in MDCK cells, bDNA assay, read-out: EC50.
The mark [7] stands for this setting: Influenza A virus, PR/8, MDCK, MDCK cells infected with A/PR/8/34, cell protection (CPE), read-out: IC50 (mean all).
Where [8] appears, read: Influenza A virus, PR/8, MDCK, MDCK cells infected with A/PR/8/34, bDNA viral RNA, read-out: EC50 (mean all).
Setting [9] is: Influenza A virus, PR/8, MDCK, MDCK cells infected with A/PR/8/34, survival of infected cells, class symbols, read-out: IC50 (mean all).
[10] abbreviates: Influenza A virus, PR/8, MDCK, MDCK cells infected with A/PR/8/34, replication of influenza virus (viral RNA, bDNA), class symbols, read-out: EC50 (mean all).

With `O=C(N[C@@H]1CCC[C@H](Nc2nc(-c3c[nH]c4ncc(Cl)cc34)ncc2F)C1)C1CCCCO1` (stereo partly drawn) [Compound 651, N-[(1R,3S)-3-[[2-(5-chloro-1H-pyrrolo[2,3-b]pyridin-3-yl)-5-fluoro-pyrimidin-4-yl]amino]cyclohexyl]tetrahydropyran-2-carboxamide hydrochloride], the IC50 in assay [1] (setting [3]) was less than 5 µM. Also, the EC50 in assay [2] (setting [4]) is less than 5 µM.

For “(1S,3R)—N1-(5-fluoro-2-(5-fluoro-1H-pyrrolo[2,3-b]pyridin-3-yl)pyrimidin-4-yl)-N3-(pyrazin-2-yl)cyclohexane-1,3-diamine [Compound 985]”, the IC50 in assay [1] (MDCK cells, A/PR/8/34, ATP readout, mean all, read-out: Cell Flu, MDCK protection, ATP (All: IC50: uM)(Mean (All))) was less than 5 µM. The EC50 in assay [2] (HA(−) 30 hr, A/PR/8, bDNA, mean all, read-out: Cell Influenza HA(−) 30 hr A/PR/8 bDNA:bDNA EC50 uM(Mean (All))) is less than 5 µM.

As for `CCCCC(=O)N1CCCC[C@@H]1CNc1nc(-c2c[nH]c3ncc(Cl)cc23)ncc1F` [Compound 326, (R)-1-(2-((2-(5-chloro-1H-pyrrolo[2,3-b]pyridin-3-yl)-5-fluoropyrimidin-4-ylamino)methyl)piperidin-1-yl)pentan-1-one], the IC50 in assay [1] (setting [5]) lay within 5 to 20 µM. The EC50 in assay [2] (setting [6]) is less than 5 µM.

Turning to `O=C(c1ccco1)N1CCC[C@H](CNc2nc(-c3c[nH]c4ncc(Cl)cc34)ncc2F)C1` [Compound 102, (R)-(3-((2-(5-chloro-1H-pyrrolo[2,3-b]pyridin-3-yl)-5-fluoropyrimidin-4-ylamino)methyl)piperidin-1-yl)(furan-2-yl)methanone], in assay [1] (setting [7]), the IC50 was less than 5 µM. Further, in assay [2] (setting [8]), the EC50 is less than 5 µM.

For `COc1c(C)cccc1C(=O)N1CCC[C@H](CNc2nc(-c3c[nH]c4ncc(Cl)cc34)ncc2F)C1` [Compound 148, (R)-(3-((2-(5-chloro-1H-pyrrolo[2,3-b]pyridin-3-yl)-5-fluoropyrimidin-4-ylamino)methyl)piperidin-1-yl)(2-methoxy-3-methylphenyl)methanone], the IC50 in assay [1] (setting [7]) is less than 5 µM. Also, in assay [2] (setting [8]), the EC50 is less than 5 µM.

Regarding `O=c1[nH]c(=O)n([C@@H]2CCC[C@H](Nc3nc(-c4c[nH]c5ncc(Cl)cc45)ncc3F)C2)o1` [Compound 796], the IC50 in assay [1] (read-out: IC50) was less than 5 µM. The EC50 in assay [2] (mean all, A/PR/8/34 influenza virus replication, bDNA, read-out: EC50) was less than 5 µM.

Turning to `O=C1CCCN1[C@@H]1CCC[C@H](Nc2nc(-c3c[nH]c4ncc(Cl)cc34)ncc2F)C1` [Compound 956], the IC50 in assay [1] (Influenza A virus, PR/8, MDCK, mean all, survival of A/PR/8/34 infected MDCK cells (CPE assay), read-out: IC50) was less than 5 µM. Moreover, the EC50 in assay [2] (Influenza A virus, PR/8, mean all, replication of A/PR/8/34 influenza virus (bDNA assay), read-out: EC50) was less than 5 µM.

Take `CC#CCOC(=O)N1CCC[C@H](CNc2nc(-c3c[nH]c4ncc(Cl)cc34)ncc2F)C1` [Compound 127, (R)-but-2-ynyl 3-((2-(5-chloro-1H-pyrrolo[2,3-b]pyridin-3-yl)-5-fluoropyrimidin-4-ylamino)methyl)piperidine-1-carboxylate]: the IC50 in assay [1] (Influenza A virus, PR/8, MDCK, read-out: IC50 (mean all)) is less than 5 µM. For the same molecule, the EC50 in assay [2] (Influenza A virus, PR/8, MDCK, read-out: EC50 (mean all)) is less than 5 µM.

Take `CNC(=O)N[C@H]1CCC[C@@H](Nc2nc(-c3c[nH]c4ncc(Cl)cc34)ncc2F)C1` (relative stereo) [Compound 455, 1-[cis-3-[[2-(5-chloro-1H-pyrrolo[2,3-b]pyridin-3-yl)-5-fluoro-pyrimidin-4-yl]amino]cyclohexyl]-3-methyl-urea]: the IC50 in assay [1] (setting [5]) is less than 5 µM. In addition, the EC50 in assay [2] (setting [6]) was less than 5 µM.

Consider `O=C(Nc1cccc(F)c1)N1CCC[C@H](CNc2nc(-c3c[nH]c4ncc(Cl)cc34)ncc2F)C1` [Compound 75, (R)-3-((2-(5-chloro-1H-pyrrolo[2,3-b]pyridin-3-yl)-5-fluoropyrimidin-4-ylamino)methyl)-N-(3-fluorophenyl)piperidine-1-carboxamide], for which the IC50 in assay [1] (setting [7]) was less than 5 µM. Further, the EC50 in assay [2] (setting [8]) was less than 5 µM.

On to `CCCS(=O)(=O)N1CCC[C@H](Nc2nc(-c3c[nH]c4ncc(Cl)cc34)ncc2F)C1` [Compound 306, (S)-2-(5-chloro-1H-pyrrolo[2,3-b]pyridin-3-yl)-5-fluoro-N-(1-(propylsulfonyl)-piperidin-3-yl)pyrimidin-4-amine], for which the IC50 in assay [1] (setting [5]) is less than 5 µM. The EC50 in assay [2] (setting [6]) is less than 5 µM.

In the case of `CS(=O)(=O)C[C@@]1(O)CCC[C@H](Nc2nc(-c3c[nH]c4ncc(Cl)cc34)ncc2F)C1` [Compound 886], the IC50 in assay [1] (read-out: IC50) was less than 5 µM. The EC50 in assay [2] (mean all, replication of A/PR/8/34 influenza virus (bDNA assay), read-out: EC50) is less than 5 µM.

In the case of `Cc1ccc(S(=O)(=O)n2cc(-c3ncc(F)c(N[C@H]4CCCC(C)(O)C4)n3)c3cc(Cl)cnc32)cc1` (some centres unmarked) [Compound 656], in assay [1] (CPE assay, A/PR/8/34 infected MDCK cells, class symbols, read-out: IC50 (mean all)), the IC50 is less than 5 µM. Further, the EC50 in assay [2] (bDNA assay, A/PR/8/34 influenza virus replication in MDCK cells, class symbols, read-out: EC50 (mean all)) was less than 5 µM.

For `CCOC(=O)C1=CC(Nc2nc(-c3c[nH]c4ncc(Cl)cc34)ncc2F)[C@@H](NC(C)=O)[C@H](OC(CC)CC)C1` (some centres unmarked) [Compound 670], the IC50 in assay [1] (setting [3]) was more than 10 µM. Besides, the EC50 in assay [2] (setting [4]) is more than 3.3 µM.

For the molecule `CCS(=O)(=O)N1CCC[C@H](Nc2nc(-c3c[nH]c4ncc(Cl)cc34)ncc2F)C1` [Compound 393, (S)-2-(5-chloro-1H-pyrrolo[2,3-b]pyridin-3-yl)-N-(1-(ethylsulfonyl)piperidin-3-yl)-5-fluoropyrimidin-4-amine], in assay [1] (setting [5]), the IC50 was less than 5 µM. Further, the EC50 in assay [2] (setting [6]) is less than 5 µM.

As to `O=C(C1CCCCC1)N1CCC[C@H](CNc2nc(-c3c[nH]c4ncc(Cl)cc34)ncc2F)C1` [Compound 95, (R)-(3-((2-(5-chloro-1H-pyrrolo[2,3-b]pyridin-3-yl)-5-fluoropyrimidin-4-ylamino)methyl)piperidin-1-yl)(cyclohexyl)methanone], the IC50 in assay [1] (setting [7]) was less than 5 µM. In addition, the EC50 in assay [2] (setting [8]) is less than 5 µM.

On to `O=C(c1nccs1)N1CCCC(CNc2nc(-c3c[nH]c4ncc(Cl)cc34)ncc2F)C1` (centres unmarked) [Compound 186], for which the IC50 in assay [1] (setting [7]) was less than 5 µM. In addition, in assay [2] (setting [8]), the EC50 is less than 5 µM.

With `O=C1NCCCC[C@@H]1Nc1ccnc(-c2c[nH]c3ncc(Cl)cc23)n1` [Compound 500], the IC50 in assay [1] (setting [9]) is less than 5 µM. The EC50 in assay [2] (setting [10]) was less than 5 µM.

Turning to `CC(=O)N1CCC[C@@H](CNc2nc(-c3c[nH]c4ncc(Cl)cc34)ncc2F)C1` [Compound 37, (S)-1-(3-((2-(5-chloro-1H-pyrrolo[2,3-b]pyridin-3-yl)-5-fluoropyrimidin-4-ylamino)methyl)piperidin-1-yl)ethanone], the IC50 in assay [1] (setting [7]) was less than 5 µM. Further, the EC50 in assay [2] (setting [8]) is less than 5 µM.

For `CN(C)C(=O)N1CCCC(Nc2nc(-c3c[nH]c4ncc(Cl)cc34)ncc2F)CC1` (centres unmarked) [Compound 499, 4-(2-(5-chloro-1H-pyrrolo[2,3-b]pyridin-3-yl)-5-fluoropyrimidin-4-ylamino)-N,N-dimethylazepane-1-carboxamide], the IC50 in assay [1] (setting [9]) was less than 5 µM. The EC50 in assay [2] (setting [10]) is less than 5 µM.

Take `C=CCC(=O)N1CCC[C@@H](CNc2nc(-c3c[nH]c4ncc(Cl)cc34)ncc2F)C1` [Compound 49, (S)-1-(3-((2-(5-chloro-1H-pyrrolo[2,3-b]pyridin-3-yl)-5-fluoropyrimidin-4-ylamino)methyl)piperidin-1-yl)but-3-en-1-one]: the IC50 in assay [1] (setting [7]) is less than 5 µM. In addition, the EC50 in assay [2] (setting [8]) was less than 5 µM.

`O=C(C1CCC1)N1CCOCC1CNc1nc(-c2c[nH]c3ncc(Cl)cc23)ncc1F` (centres unmarked) [Compound 531, (3-((2-(5-chloro-1H-pyrrolo[2,3-b]pyridin-3-yl)-5-fluoropyrimidin-4-ylamino)methyl)morpholino)(cyclobutyl)methanone]: the IC50 in assay [1] (setting [9]) is 5 to 20 µM. In addition, the EC50 in assay [2] (setting [10]) is less than 5 µM.
